Target: T1, Amine oxidase [flavin-containing] B (Homo sapiens, UniProt P27338)
T1 sequence (P27338 whole entry): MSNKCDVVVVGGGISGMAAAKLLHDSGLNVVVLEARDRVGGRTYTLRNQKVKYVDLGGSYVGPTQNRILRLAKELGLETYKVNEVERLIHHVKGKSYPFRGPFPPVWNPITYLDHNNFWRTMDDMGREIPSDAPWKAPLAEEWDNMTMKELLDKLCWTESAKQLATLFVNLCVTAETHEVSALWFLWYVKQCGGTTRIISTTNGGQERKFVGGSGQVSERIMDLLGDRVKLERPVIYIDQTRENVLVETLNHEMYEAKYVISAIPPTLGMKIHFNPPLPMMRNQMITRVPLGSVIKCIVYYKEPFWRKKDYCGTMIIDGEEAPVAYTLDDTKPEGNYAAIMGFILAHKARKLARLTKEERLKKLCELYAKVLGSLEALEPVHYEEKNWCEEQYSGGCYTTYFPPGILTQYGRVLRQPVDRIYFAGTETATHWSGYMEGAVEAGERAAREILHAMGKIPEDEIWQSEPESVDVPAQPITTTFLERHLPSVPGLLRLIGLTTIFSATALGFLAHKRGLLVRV
Assay: Inhibition of MAOB

IC50 [µM]	SMILES
92	COc1ccc(C2=NN(C(=S)Nc3ccccc3)C(c3cccs3)C2)cc1 (configuration not stated)
22	CCNC(=S)N1N=C(c2ccc(OC)cc2)CC1c1cccs1 (configuration not stated)
240	C=CCNC(=S)N1N=C(c2ccc(C)cc2)CC1c1cccs1 (configuration not stated)
8.9	COc1cc(O)ccc1O
40	COc1ccc(C2=NN(C(C)=O)C(c3ccccc3C)C2)c(OC)c1 (configuration not stated)
65	C=CNC(=S)N1N=C(c2ccc(OC)cc2)CC1c1cccs1 (configuration not stated)
17	CC(=O)NC[C@H]1CN(c2ccc(N3CCOCC3)c(F)c2)C(=O)O1 [LINEZOLID]
25	COc1ccc(C2CC(c3ccccc3)=NN2C(C)=O)cc1OC (configuration not stated)
19	NC1CC1(F)c1ccccc1 (configuration not stated)
6.7	CCOC(=O)/C=C/c1ccc(O)c(OC)c1 [ETHYL FERULATE]
13	Cc1ccc(C2(F)CC2N)cc1 (configuration not stated)

SMILES	IC50 [µM]
Oc1ccc(/C=C\c2cc(O)cc(O)c2)cc1 [CIS-RESVERATROL]	61

From ChEMBL document CHEMBL1153579, “Knowledge based identification of MAO-B selective inhibitors using pharmacophore and structure based virtual screening models” (Eur J Med Chem, 2009)
